“Also recorded” adds a separate entry of the source.
Experiments:
ENPP-1 = molecular target: T1, ENPP-1 (Homo sapiens, UniProt P22413); assay: Phosphodiesterase activity in valve interstitial cells exposed to calcifying medium; type: cell-based; conditions: VICs, calcifying medium (NaH2PO4 2 mM), 14 days; ARL 67156 10 μM and 25 μM
T1 construct: endogenous in cells; host or cells: primary human valve interstitial cells (VICs)
T1 sequence (P22413 1-925): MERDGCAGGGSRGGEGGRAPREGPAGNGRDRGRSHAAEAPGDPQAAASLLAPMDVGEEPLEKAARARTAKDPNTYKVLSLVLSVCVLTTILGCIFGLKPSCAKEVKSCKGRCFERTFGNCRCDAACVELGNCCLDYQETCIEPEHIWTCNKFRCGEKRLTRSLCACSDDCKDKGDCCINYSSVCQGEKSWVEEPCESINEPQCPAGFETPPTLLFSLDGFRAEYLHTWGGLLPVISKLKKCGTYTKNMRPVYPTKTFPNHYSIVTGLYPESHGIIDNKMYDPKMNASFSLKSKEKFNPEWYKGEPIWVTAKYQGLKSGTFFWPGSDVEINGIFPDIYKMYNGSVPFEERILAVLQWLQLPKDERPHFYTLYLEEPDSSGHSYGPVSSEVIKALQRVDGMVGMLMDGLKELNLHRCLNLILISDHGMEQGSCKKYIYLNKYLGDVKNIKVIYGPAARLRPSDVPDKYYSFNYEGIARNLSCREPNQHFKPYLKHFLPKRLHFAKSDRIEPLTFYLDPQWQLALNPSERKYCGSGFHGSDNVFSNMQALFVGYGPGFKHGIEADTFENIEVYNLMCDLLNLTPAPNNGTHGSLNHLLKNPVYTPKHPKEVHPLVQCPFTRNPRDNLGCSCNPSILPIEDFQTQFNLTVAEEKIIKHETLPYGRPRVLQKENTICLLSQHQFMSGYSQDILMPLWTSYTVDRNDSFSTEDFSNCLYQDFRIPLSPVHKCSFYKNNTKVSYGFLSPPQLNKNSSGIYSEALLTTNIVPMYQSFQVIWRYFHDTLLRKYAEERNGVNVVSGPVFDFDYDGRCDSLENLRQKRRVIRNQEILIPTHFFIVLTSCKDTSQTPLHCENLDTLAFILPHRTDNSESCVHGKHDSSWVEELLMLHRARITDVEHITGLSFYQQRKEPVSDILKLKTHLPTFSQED
Protocol: Phosphodiesterase activity was measured using the substrate p-nitrophenyl phenylphosphonate (PNPP-PP) (Sigma, Oakville, Ont, Canada). Proteins were isolated from normal control valves (n=14), AS valves (n=18) or valve interstitial cells (VICs) and used for enzyme activity. Cells were harvested with trypsine-EDTA (Invitrogen, Toronto, Ont, Canada), washed 2 times in washing buffer (NaCl 0.15M, TRIS-HCl pH 8.1, 20 mM, CaCl2 1 mM) and resuspended in assay buffer (NaCl 0.15M, TRIS-HCl pH 8.1, 20 mM, CaCl2 0.5 mM, 1 mM p-nitrophenyl phenylphosphonate). The same amount of proteins isolated from tissues were washed twice in washing buffer and resuspended in 600 μl of assay buffer. […] Absorbance was measured at 400 nm. Results were calculated using a molar absorption coefficient for p-nitrophenol of 18320 M^−1 cm^−1. […]
Human valve interstitial cells (VICs) were isolated by collagenase digestion from explanted hearts during transplant procedures. […] For calcium quantification, cells were decalcified with 0.6 M HCl for 24 h. The calcium content of the HCl supernatants was determined using the o-cresolphthalein complexone method. […] The protein content was determined using Biorad® assay kit (Biorad, Mississauga, Ont, Canada). […]

alkaline phosphatase = assay: Alkaline phosphatase activity in valve interstitial cells exposed to calcifying medium; type: cell-based, human; conditions: VICs after exposition to calcifying medium
Protocol: (§1) Human valve interstitial cells (VICs) were isolated by collagenase digestion from explanted hearts during transplant procedures. Cells were cultured in DMEM containing 10% FBS, 2 mM L-glutamine and 1 mM sodium pyruvate (Invitrogen, Toronto, Ont, Canada). Cells were seeded in 12 well plates (2×10^4 cells/well). To provoke calcification, cells were incubated with a pro-calcifying medium containing: DMEM+5% FBS, 10^−7 M insulin, 50 μg/ml ascorbic acid and NaH2PO4 at 2 mM (in some experiments where it is specified NaH2PO4 was used at 1, 2 and 5 mM). […] In some experiments ARL 67156 (a competitive inhibitor of ENPP-1) (10 μM and 25 μM) was added to the growth medium Studies were conducted at day 0, 7, 14 in triplicate. For calcium quantification, cells were decalcified with 0.6 M HCl for 24 h. The calcium content of the HCl supernatants was determined using the o-cresolphthalein complexone method. After decalcification, cells were washed with PBS and solubilised with 0.1 N NaOH/0.1% SDS. The protein content was determined using Biorad® assay kit (Biorad, Mississauga, Ont, Canada). Cells calcium content was normalized to protein content.

[1] = tested on: Human valve interstitial cells (VICs); assay: In vitro calcification of valve interstitial cells (calcium content, o-cresolphthalein complexone method); type: cell-based; conditions: day 14 after treatment with calcifying medium; ARL 67156 10 μM and 25 μM
Protocol: as §1

WVK rat model = assay: Warfarin and vitamin K (WVK) rat model of aortic calcification; type: in vivo
Protocol: Animal experiments were approved by the Animal Care and Use Committee of Laval and Montreal Universities. Male Wistar rats (initial weight 200 g) were obtained from Charles River Breeding Laboratories (St Constant, Qc, Canada). The animals received warfarin (20 mg/kg/day in drinking water) and vitamin K (phylloquinone) (15 mg/kg/day subcutaneous injection) (WVK) (n=10) at day 1, 3, 5, 7, 14, 21, and 28. Dosages were adjusted every second day. Controls consisted of age-matched untreated rats (n=7). In two other groups of rats, ARL 67156 was administered at 0.55 μg/kg/day (n=10) and 1.1 μg/kg/day (n=10) during 28 days with osmotic pumps implanted subcutaneously. At day 28, animals were anesthetized with pentobarbital (65 mg/kg) for blood plasma sampling and the harvesting of aorta and heart. Segments of the aorta were frozen at −80° C. for the determination of calcium amount. The heart with the aortic root and valve was fixed in formaldehyde 10% for histological processing and immunohistology. […] Morphometric analyses of the aortic root (at the level of aortic valve and sinuses of Valsalva) were carried out using the Image-Pro Plus (MediaCybernetics, Bethesda, Md., USA) image analysis software to quantify the calcified areas (with the von Kossa staining) normalized to the total surface area of the section.

CCN(CC)c1ncnc2c1ncn2C1OC(COP(=O)(O)OP(=O)(O)C(Br)(Br)P(=O)(O)O)[C@@H](O)[C@H]1O (some centres unmarked) [ARL 67156]
phosphodiesterase activity (ENPP-1): dose-dependently decreased; also recorded: significantly reduced | alkaline phosphatase (ALP) activity (alkaline phosphatase): did not affect; also recorded: not affected | calcification of isolated VICs [1]: significantly reduced; also recorded: dose-dependently reduced | calcification of the aortic root at the level of aortic cusp (WVK rat model; rat treated with 1.1 μg/kg/d, von Kossa histology (FIG. 5F)): without calcification | calcification of the aortic valve cusps (WVK rat model; rats under WVK regimen, 28 days, 0.55 μg/kg/d and 1.1 μg/kg/d by osmotic pump): prevented the development of aortic valve calcifications; also recorded: not detected
